Assays:
#12424 PDX tumor model = assay: Efficacy in pancreatic patient derived xenograft #12424 (PDX 12424-8P); details: for growth inhibition versus saline control: both dose levels (Gemcitabine 35 and 100 mg/kg; Oxaliplatin 5 and 10 mg/kg)
Procedure: (§1) Experiments were performed according to approved guidelines. CB.17 SCID mice were obtained from Roswell Park Cancer Institute, initially at 6-8 weeks of age. Per treatment group, 8 animals were treated, unless otherwise indicated. Tumor pieces were derived from donor mice and engrafted subcutaneously. Depending on the variability in tumor growth, animals were either randomized to the different arms at one specific timepoint or a rolling randomization was performed in which a subgroup of animals were randomized through a period of time to ensure less variability in starting sizes. Animals were randomized and dosing initiated when tumors reached an average volume of 200-250 mm^3 (range 100-400 mm^3), unless otherwise indicated.
(§2) For efficacy experiments, 46scFv-ILs-DTXp3 were generated as described in composition description.
Intravenous administration of the indicated doses of each agent was initiated when tumors reached an average volume of 200-250 mm^3 and continued for a total of four weekly doses. Tumor volumes were measured once to twice weekly during the dosing cycle and until tumors regrow or reaching maximum monitoring period of 120-160 days or animals were in poor general health and needed to be sacrificed. The tumor progression was monitored by palpation and caliper measurements of the tumors along the largest (length) and smallest (width) axis twice a week.
(§3) Tumor volume (TV)=[(length)×(width)^2]/2
(§4) Single tumor volume curves for each animal were plotted and two metrics that describe antitumor effects were calculated as follows:
(§5) 1) Max Response=[(minimum TV−TV at day 0)/TV at day 0]×100
(§6) 2) Time to regrowth=Time for the tumor to reach four times its initial size
(§7) All statistical analysis between treatment groups was performed using JMP v11.0 software. For treatment group comparison, two-way ANOVA analysis was performed in conjunction with post hoc Tukey HSD statistical analysis.
Model #12424 was maintained by passaging tumor fragments in immunodeficient mice. This PDX model was at passage 8 for study #12424-8P.

[1] = Short-term tolerance test of 46scFv-ILs-DTXp3 with Gemcitabine or Carboplatin; assay type: in vivo, CD-1 female mice; details: for histopathology: individual hepatocyte necrosis: carboplatin combo and mono, gemcitabine combo with 46scFv-ILs-DTXp3 100 mpk; for histopathology: extramedullary hematopoiesis in the spleen: carboplatin mono and combo, Gemcitabine combo with 46scFv-ILs-DTXp3 100 mpk
Procedure: Gemcitabine and Carboplatin are chemotherapeutic agents likely to be combined with 46scFv-ILs-DTXp3 in the clinic. Gemcitabine alone is well tolerated in mice; most protocols list an MTD for i.p. dosing around 240 mpk q3d. […] The stock concentration of 46scFv-ILs-DTXp3 was 11.09 mg/ml. Carboplatin was purchased from Hospira Inc and used at a stock concentration of 10 mg/ml. Gemcitibine was purchased from Sun Pharam and used at a stock concentration of 38 mg/ml.
CD-1 female mice (7-8 week old) were obtained from Charles River. During the treatment phase mice body weight was monitored daily. In order to assess the effect of drug scheduling on tolerability, animals were treated with a single dose of 46scFv-ILs-DTXp3 followed by a dose of either carboplatin or gemcitabine at various dose levels and starting at different timepoints post 46scFv-ILs-DTXp3 treatment (Table 3). Additionally, a single treatment group treated with carboplatin or gemcitabine was added.
At study end (10 days after last drug dose, i.e. day 10 for 8 h, day 11 for 24 h, and day 13 for 72 h combinations), mice were euthanized with carbon dioxide. Blood was collected by cardiac puncture. Catalyst analysis used an EQUINE-15 clip with an additional individual ALT assay added (Idexx, Westbrook, Mass.). Tissues collected included liver, kidney, spleen, heart, skeletal muscle (with skin attached). Tissues were fixed in 10% neutral buffered formalin ˜24 h, then stored in 70% ethanol. Tissues from mice in the highest-dose groups (all time points) as well as untreated and single-agent controls were shipped to Mass Histology Inc (Worcester, Mass.) for processing, and H&E staining of sectioned tissues. Received slides were scanned at 20X on the aperio bright field scanner.

[2] = tested on: human ovarian patient derived model OVx-132; assay: Combination with carboplatin in ovarian patient derived model OVx-132; assay type: in vivo, Immunodeficient mice; details: for growth arrest and tumor regression: docetaxel 5 mg/kg, 46scFv-ILs-DTXp3 25 mg/kg, carboplatin 60 mg/kg, combinations dosed 3 days apart, carboplatin first; for Time-to-tumor regrowth (TTR; time for tumor to double its volume): monitored 160 days
Procedure: Immunodeficient mice were implanted with human ovarian patient derived model OVx-132. Animals randomized into the following experimental groups: Saline, docetaxel at 5 mg/kg, 46scFv-ILs-DTXp3 at 25 mg/kg, carboplatin 60 mg/kg, carboplatin/docetaxel, and carboplatin/46scFv-ILs-DTXp3. For the combinations groups carboplatin/docetaxel and carboplatin/46scFv-ILs-DTXp3 doses used for the monotherapy arms were combined and dosed 3 days a part with carboplatin being dosed first followed by the docetaxel or 46scFv-ILs-DTXp3.
The animals received four tail vein injections, at the intervals of 7 days. Tumor size was monitored once to twice weekly.
Tumor volume(TV)=[(length)×(width)^2]/2
Maximum response was calculated using the following formula where TV is tumor volume:
Max tumor regression=[(TVmin−TVday0)/TVday0]×100
Maximum tumor regression was classified as complete tumor regression (100% regression with no palpable tumor), partial tumor regression (max tumor regression more than 30%) or no tumor regression.
Animals were monitored until tumor regrowth or end of monitoring period (>120 days). Time to regrowth was defined as time for tumor to double its volume. Animals sacrificed prior to tumor volume doubling are censored.

Hydrolysis in buffer = assay type: physicochemical; details: 37° C.
Procedure: A volume of a 10 mg/mL solution of drug in DMSO as needed to provide the desired concentration (typically 16 μL to yield a 80 μg/mL solution) (see Table 1) is placed in a glass test tube or 4 mL vial. Additional DMSO may also be added (e.g. 64 μL when using 16 μL of drug solution) to yield a final total DMSO concentration of 4%. The DMSO solutions are mixed by brief vortexing, and then 2 mL (20 mM) HEPES buffer for pH 7.5 and 2 mL of (20 mM) phosphate buffer for pH 2.5 is added and the mixture is vortexed again. The initial pH may be adjusted by addition of HCl or NaOH.
Then 100 μL aliquots of the buffer solution of drug are transferred into HPLC vials and incubated in a 37° C. water bath. The remaining solution is also incubated at 37° C. in 4 mL vials for monitoring of pH.
At each time point 900 μL of 0.1% trifluoroacetic acid (TFA) in acetonitrile (ACN) is added to the HPLC vial and the contents are vortexed. The vials are then placed in an autosampler rack at 4° C. for HPLC analysis.
Time zero data points are typically obtained from a solution of 4 μL DMSO stock in 5 mL of 0.1% TFA/ACN (8 μg/mL).
HPLC analysis is performed on a SYNERGI 4 micron Polar RP-80A, 250×4.6 mm column, using a flow rate of 1 mL./min, a 50 μL injection volume, column temperature of 25° C. and with UV detection at 227 nm. Most compounds are analyzed using a 13 min gradient (Method A) from 30 to 66% acetonitrile in aqueous 0.1% TFA, followed by a 1 min gradient back to 30% and a hold at 30% for 6 minutes. If the retention time is too long for this method, a 20 min gradient (Method B) of 30 to 90% acetonitrile, followed by a 1 min return to 30% and held for 9 min at 30% is employed.
The extent of hydrolysis is reported in Table 4 below as the % PTX or DTX formation based on relative peak areas.

PDX model #14244 = assay: Efficacy in patient derived xenograft #14244 (PDX 14244-9P); details: for maximal tumor response to drug compared to control group: both dose levels
Procedure: The pancreatic xenograft model series are true xenotransplant models that were directly engrafted from patient tumor resections into SCID mice for propagation and maintained by transplantation of tumor fragments (Hylander et al., 2005, 2013). […] CB.17 SCID mice were obtained from Roswell Park Cancer Institute, initially at 6-8 weeks of age. Per treatment group, 8 animals were treated, unless otherwise indicated. Tumor pieces were derived from donor mice and engrafted subcutaneously. Depending on the variability in tumor growth, animals were either randomized to the different arms at one specific timepoint or a rolling randomization was performed in which a subgroup of animals were randomized through a period of time to ensure less variability in starting sizes. Animals were randomized and dosing initiated when tumors reached an average volume of 200-250 mm^3 (range 100-400 mm^3), unless otherwise indicated.
For efficacy experiments, 46scFv-ILs-DTXp3 were generated as described in composition description. […] MM-398 was generated in house using the final commercial process.
(§8) Intravenous administration of the indicated doses of each agent was initiated when tumors reached an average volume of 200-250 mm^3 and continued for a total of four weekly doses. Tumor volumes were measured once to twice weekly during the dosing cycle and until tumors regrow or reaching maximum monitoring period of 120-160 days or animals were in poor general health and needed to be sacrificed. The tumor progression was monitored by palpation and caliper measurements of the tumors along the largest (length) and smallest (width) axis twice a week. The tumor sizes were determined twice weekly from the caliper measurements using the formula (Geran, R. I., et al., 1972 Cancer Chemother. Rep. 3:1-88):
as §3, §4, §5, §6, §7
Model #14244 was maintained by passaging tumor fragments in immunodeficient mice. This PDX model was at passage 9 for study #14244-9P.

[3] = tested on: Pancreatic PDX model #15010; assay: Efficacy in pancreatic patient derived xenograft #15010 (PDX 15010-P5)
Procedure: as §1, §2, §8, §3, §4, §5, §6, §7

[4] = mice; i.p. dosing q3d; most protocols list; cited from earlier work

Procedure for PDX 14244-10P: CB.17 SCID mice were obtained from Roswell Park Cancer Institute, initially at 6-8 weeks of age. Per treatment group, 8 animals were treated, unless otherwise indicated. Tumor pieces were derived from donor mice and engrafted subcutaneously. Depending on the variability in tumor growth, animals were either randomized to the different arms at one specific timepoint or a rolling randomization was performed in which a subgroup of animals were randomized through a period of time to ensure less variability in starting sizes. Animals were randomized and dosing initiated when tumors reached an average volume of 200-250 mm^3 (range 100-400 mm^3), unless otherwise indicated.
Intravenous administration of the indicated doses of each agent was initiated when tumors reached an average volume of 200-250 mm^3 and continued for a total of four weekly doses. Tumor volumes were measured once to twice weekly during the dosing cycle and until tumors regrow or reaching maximum monitoring period of 120-160 days or animals were in poor general health and needed to be sacrificed. The tumor progression was monitored by palpation and caliper measurements of the tumors along the largest (length) and smallest (width) axis twice a week. The tumor sizes were determined twice weekly from the caliper measurements using the formula (Geran, R. I., et al., 1972 Cancer Chemother. Rep. 3:1-88): […]

O=c1[nH]cc(F)c(=O)[nH]1 [5-Fluorouracil]
inhibition of tumor growth compared to saline control (time to regrowth) (#12424 PDX tumor model; 50 mg/kg, four weekly IV doses): 12 days

N.N.O=C([O-])C1(C(=O)[O-])CCC1.[Pt+2] [Carboplatin]
weight loss in individual mice at day 6 ([1]; Carboplatin 84 mg/kg dosed 8 h or 24 h after 46scFv-ILs-DTXp3 100 mpk, regained weight by day 10-11): at most 10% | histopathology: individual hepatocyte necrosis ([1]; highest-dose groups): increased incidence of individual hepatocyte necrosis (minimal to mild) | histopathology: extramedullary hematopoiesis in the spleen ([1]; highest-dose groups): Increased extramedullary hematopoieisis (EMH) in the spleen | histopathology: mitotic rate in the liver ([1]; carboplatin treated groups, highest-dose groups): increase in mitotic rate in the liver | growth arrest and tumor regression [2]: minimal growth arrest and no tumor regression | Time-to-tumor regrowth (TTR; time for tumor to double its volume) [2]: minor delay on time to regrowth

CCN(CC)CCCC(=O)O[C@@H](C(=O)O[C@H]1C[C@@]2(O)[C@@H](OC(=O)c3ccccc3)[C@@H]3[C@]4(OC(C)=O)CO[C@@H]4C[C@H](O)[C@@]3(C)C(=O)[C@H](O)C(=C1C)C2(C)C)[C@@H](NC(=O)OC(C)(C)C)c1ccccc1.Cl [Compound 3, 2′-O-(4-Diethylamino Butanoyl) DTX Hydrochloride]
Percentage of Hydrolysis (% DTX formation) (Hydrolysis in buffer; pH 2.5, 0 h): 0.00% | Percentage of Hydrolysis (% DTX formation) (Hydrolysis in buffer; pH 2.5, 5 h): 0.00% | Percentage of Hydrolysis (% DTX formation) (Hydrolysis in buffer; pH 2.5, 24 h): 0.00% | Percentage of Hydrolysis (% DTX formation) (Hydrolysis in buffer; pH 2.5, 48 h): 0.00% | Percentage of Hydrolysis (% DTX formation) (Hydrolysis in buffer; pH 2.5, 96 h): 0% | Percentage of Hydrolysis (% DTX formation) (Hydrolysis in buffer; pH 7.5, 0 h): 0.00% | Percentage of Hydrolysis (% DTX formation) (Hydrolysis in buffer; pH 7.5, 5 h): 45.76% | Percentage of Hydrolysis (% DTX formation) (Hydrolysis in buffer; pH 7.5, 24 h): 100.00% | Percentage of Hydrolysis (% DTX formation) (Hydrolysis in buffer; pH 7.5, 48 h): 100.00% | Percentage of Hydrolysis (% DTX formation) (Hydrolysis in buffer; pH 7.5, 96 h): 100%

CC(=O)O[C@@]12CO[C@@H]1C[C@H](O)[C@@]1(C)C(=O)[C@H](O)C3=C(C)[C@@H](OC(=O)[C@H](OC(=O)CCCN(C)C)[C@@H](NC(=O)OC(C)(C)C)c4ccccc4)C[C@@](O)([C@@H](OC(=O)c4ccccc4)[C@H]21)C3(C)C.Cl [Compound 4]
Percentage of Hydrolysis (% DTX formation) (Hydrolysis in buffer; pH 2.5, 0 h): 0.00% | Percentage of Hydrolysis (% DTX formation) (Hydrolysis in buffer; pH 2.5, 5 h): 0.00% | Percentage of Hydrolysis (% DTX formation) (Hydrolysis in buffer; pH 2.5, 24 h): 0.00% | Percentage of Hydrolysis (% DTX formation) (Hydrolysis in buffer; pH 2.5, 48 h): 0.00% | Percentage of Hydrolysis (% DTX formation) (Hydrolysis in buffer; pH 2.5, 96 h): 0% | Percentage of Hydrolysis (% DTX formation) (Hydrolysis in buffer; pH 7.5, 0 h): 0.00% | Percentage of Hydrolysis (% DTX formation) (Hydrolysis in buffer; pH 7.5, 5 h): 76.07% | Percentage of Hydrolysis (% DTX formation) (Hydrolysis in buffer; pH 7.5, 24 h): 100.00% | Percentage of Hydrolysis (% DTX formation) (Hydrolysis in buffer; pH 7.5, 48 h): 100.00% | Percentage of Hydrolysis (% DTX formation) (Hydrolysis in buffer; pH 7.5, 96 h): 100%

Nc1ccn([C@@H]2O[C@H](CO)[C@@H](O)C2(F)F)c(=O)n1 [Gemcitabine]
growth inhibition versus saline control (#12424 PDX tumor model): statistically insignificant from saline control | delay of regrowth compared to saline (time to regrowth) (PDX model #14244; 35 mg/kg): two | delay of regrowth compared to saline (time to regrowth) (PDX model #14244; 100 mg/kg): 18 days | maximal tumor response to drug compared to control group (PDX model #14244): did not demonstrate a significant tumor response to drug | growth (body weight) ([1]; Gemcitabine 292 mg/kg, 72 h post-46scFv-ILs-DTXp3): least growth of the 292 mg/kg groups | ALT and AST ([1]; Gemcitabine 292 mg/kg, 72 h post-46scFv-ILs-DTXp3, study end): elevated ALT and AST at study end | histopathology: individual hepatocyte necrosis ([1]; highest-dose groups): increased incidence of individual hepatocyte necrosis (minimal to mild) | histopathology: extramedullary hematopoiesis in the spleen ([1]; highest-dose groups): Increased extramedullary hematopoieisis (EMH) in the spleen | toxicity (weight loss or catalyst enzyme profiling different than control mice) ([1]; mice, following an i.v. dose for 10 days, doses as high as 291.6 mg/kg): did not find toxicity | time to regrowth: growth inhibition (PDX 14244-10P; 100 mg/kg): 21.9 days | maximal response to therapy (tumor response) (PDX 14244-10P; Gemcitabine monotherapy (100 mg/kg)): 42.11% | maximal response: decrease in tumor volume ([3]; 35 mg/kg): 27% | tumor growth inhibition relative to control (time to regrowth) ([3]; 35 mg/kg): 27 days | maximal response: decrease in tumor volume ([3]; 100 mg/kg): 37% | tumor growth inhibition relative to control (time to regrowth) ([3]; 100 mg/kg): 37 days | MTD [4]: around 240 mpk

O=C1[O][Pt]2([NH][C@@H]3CCCC[C@H]3[NH]2)[O]C1=O [Oxaliplatin]
growth inhibition versus saline control (#12424 PDX tumor model): statistically insignificant from saline control | delay of regrowth over control group (time to regrowth) (PDX model #14244; 5 mg/kg): 2 days | delay of regrowth over control group (time to regrowth) (PDX model #14244; 10 mg/kg): 1 days | maximal tumor response to drug compared to control group (PDX model #14244): did not demonstrate a significant tumor response to drug | tumor growth inhibition relative to control (time to regrowth) ([3]; 10 mg/kg): 30 days | maximal tumor response to drug versus saline control ([3]; both treatment doses): did not show a statistically significant difference from saline control

CC(=O)O[C@@]12CO[C@@H]1C[C@H](O)[C@@]1(C)C(=O)[C@H](O)C3=C(C)[C@@H](OC(=O)[C@H](O)[C@@H](NC(=O)OC(C)(C)C)c4ccccc4)C[C@@](O)([C@@H](OC(=O)c4ccccc4)[C@H]21)C3(C)C [docetaxel]
growth arrest and tumor regression [2]: minimal growth arrest and no tumor regression | Time-to-tumor regrowth (TTR; time for tumor to double its volume) [2]: minor delay on time to regrowth

Source: US20190070113A1, “Treating Ephrin Receptor A2 (Epha2) Positive Cancer with Targeted Docetaxel-Generating Nano-Liposome Compositions” (Merrimack Pharmaceuticals, Inc., priority 2016, published 2019)
